Measured values as given in the NIST ThermoML archive (doi:10.1016/j.jct.2011.07.014).

Conditions: Liquid, Transpiration method

CC(=O)CCC(=O)O [4-oxopentanoic acid]
Conditions	vapor or sublimation pressure [kPa]
328.4 K	0.00705
333.4 K	0.01045
338.3 K	0.01414
343.3 K	0.02096
343.4 K	0.02019
348.3 K	0.02702
353.3 K	0.0381
358.3 K	0.05278
358.4 K	0.05148
363.4 K	0.07587
368.4 K	0.101
373.4 K	0.1349
